In one assay the target is human recombinant FAAH (Homo sapiens (Human), UniProt O00519). Kind of assay: In vitro inhibition of FAAH activity (fluorescent inhibitor screening kit, AMC arachidonoyl amide). The format is biochemical. The note with it: human recombinant FAAH; read-out: Inhibition on FAAH activity (IC50). In outline: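 Fluorogenic kit assay: AMC arachidonoyl amide is cleaved by human recombinant FAAH, read at 340-360/450-465 nm. Percent inhibition versus non-treated control; IC50 values derived from multiple compound concentrations where tested.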

The next assay has as its target human recombinant MAGL (Homo sapiens (Human), UniProt Q99685). Kind of assay: In vitro inhibition of MAGL activity (inhibitor screening kit, 4-nitrophenylacetate). The format is biochemical. The note with it: human recombinant MAGL. In outline: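 Percent inhibition derived from absorbance (405-412 nm) of treated wells relative to untreated enzyme control. Human recombinant MAGL with 4-nitrophenylacetate substrate, whose cleavage yields yellow 4-nitrophenol.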

Molecules are shown by their SMILES.

Among the data in patent publication US20250129027A1 (APOGEE PHARMACEUTICALS, INC., priority 2023, published 2025) are IC50 values, retold here.

Chain of human recombinant FAAH (O00519 whole entry): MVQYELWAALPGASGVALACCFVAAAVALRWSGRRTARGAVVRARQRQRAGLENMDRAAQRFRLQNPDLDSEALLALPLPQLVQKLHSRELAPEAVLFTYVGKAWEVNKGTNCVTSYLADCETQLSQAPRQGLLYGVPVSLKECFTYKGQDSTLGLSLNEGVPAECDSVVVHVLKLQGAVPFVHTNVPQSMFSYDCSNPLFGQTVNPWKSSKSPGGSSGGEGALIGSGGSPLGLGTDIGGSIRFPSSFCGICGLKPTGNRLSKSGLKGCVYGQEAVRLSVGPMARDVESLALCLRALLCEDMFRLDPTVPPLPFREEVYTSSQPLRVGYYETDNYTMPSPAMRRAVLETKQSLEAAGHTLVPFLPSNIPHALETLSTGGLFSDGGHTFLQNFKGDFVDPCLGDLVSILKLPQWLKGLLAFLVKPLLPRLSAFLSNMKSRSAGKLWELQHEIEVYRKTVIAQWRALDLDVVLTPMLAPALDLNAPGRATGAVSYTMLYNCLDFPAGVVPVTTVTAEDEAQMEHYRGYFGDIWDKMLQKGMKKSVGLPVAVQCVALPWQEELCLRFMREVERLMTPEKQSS
Chain of human recombinant MAGL (Q99685 whole entry): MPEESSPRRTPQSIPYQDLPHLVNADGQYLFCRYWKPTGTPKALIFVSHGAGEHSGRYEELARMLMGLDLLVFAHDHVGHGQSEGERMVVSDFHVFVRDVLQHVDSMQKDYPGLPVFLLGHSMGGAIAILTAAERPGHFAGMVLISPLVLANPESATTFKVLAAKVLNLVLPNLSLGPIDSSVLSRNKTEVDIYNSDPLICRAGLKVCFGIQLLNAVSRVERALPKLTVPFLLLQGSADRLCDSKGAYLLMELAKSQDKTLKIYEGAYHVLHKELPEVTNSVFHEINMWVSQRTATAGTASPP

As for `CCCCCCCCNC(=O)Oc1ccc(OC)c(-c2cncc(-c3ncn[nH]3)c2)c1` [Example 232, 3-(5-(1H-1,2,4-triazol-5-yl)pyridin-3-yl)-4-methoxyphenyl octylcarbamate], the IC50 was 10 to 100 nM on human recombinant FAAH and roughly 10 µM at human recombinant MAGL.
Taken in the same sequence, the figures for `COc1ccc(OC(=O)NC2CCCC2)cc1-c1cncc(-c2ccno2)c1` [Example 112, 3-(5-(isoxazol-5-yl)pyridin-3-yl)-4-methoxyphenyl cyclopentylcarbamate] were roughly 100 nM and greater than 10 µM.
Taken in the same sequence, the figures for `O=C(NC1CCCC1)Oc1cccc(-c2cncc(-c3ccco3)c2)c1` [Example 50, 3-(5-(furan-2-yl)pyridin-3-yl)phenyl cyclopentylcarbamate] were 10 to 100 nM and roughly 10 µM.
Taken in the same sequence, the figures for `O=C(NC1CC2(CCC2)C1)Oc1cccc(-c2cncc(-c3nnco3)c2)c1` [Example 147, 3-(5-(1,3,4-oxadiazol-2-yl)pyridin-3-yl)phenyl spiro[3.3]heptan-2-ylcarbamate] were 10 to 100 nM and greater than 10 µM.
For `CCCCCCCCNC(=O)Oc1cccc(-c2cncc(-c3nncs3)c2)c1` [Example 207, 3-(5-(1,3,4-thiadiazol-2-yl)pyridin-3-yl)phenyl octylcarbamate], the figures for the IC50 at human recombinant FAAH and at human recombinant MAGL were 1 to 10 nM and roughly 10 µM, respectively.
Regarding `CCCCCCCCNC(=O)Oc1ccc(OC)c(-c2cncc(-c3nncs3)c2)c1` [Example 213, 3-(5-(1,3,4-thiadiazol-2-yl)pyridin-3-yl)-4-methoxyphenyl octylcarbamate], the IC50 at human recombinant FAAH is 1 to 10 nM; at human recombinant MAGL, roughly 10 µM.
For `O=C(NC1CCCCC1)Oc1cc(F)cc(-c2cncc(-c3nnco3)c2)c1` [Example 197, 3-(5-(1,3,4-oxadiazol-2-yl)pyridin-3-yl)-5-fluorophenyl cyclohexylcarbamate] the same measures were 100 to 1000 nM and greater than 10 µM.
Taken in the same sequence, the figures for `CCCCCCCCNC(=O)Oc1ccc(OC)c(-c2cncc(-c3ccco3)c2)c1` [Example 53, 3-(5-(furan-2-yl)pyridin-3-yl)-4-methoxyphenyl octylcarbamate] were 10 to 100 nM and roughly 10 µM.
Taken in the same sequence, the figures for `CCCCCCCNC(=O)Oc1cccc(-c2cncc(C(=O)OCC)c2)c1` [Example 2, ethyl 5-(3-((heptylcarbamoyl)oxy)phenyl)nicotinate] were 10 to 100 nM and 1 to 10 µM.
Turning to `O=C(Oc1cccc(-c2cncc(-c3nnco3)c2)c1)N1CCCCCC1` [Example 145, 3-(5-(1,3,4-oxadiazol-2-yl)pyridin-3-yl)phenyl azepane-1-carboxylate], the IC50 was greater than 1000 nM at human recombinant FAAH and greater than 10 µM on human recombinant MAGL.
For `O=C(NC1CCCC1)Oc1cccc(-c2cncc(-c3ncn[nH]3)c2)c1` [Example 223, 3-(5-(1H-1,2,4-triazol-5-yl)pyridin-3-yl)phenyl cyclopentylcarbamate] the same measures were 100 to 1000 nM and greater than 10 µM.
For `Cc1ccc(-c2cncc(-c3ncco3)c2)cc1OC(=O)NC1CCC(C)CC1` (stereo not drawn) [Example 96, 2-methyl-5-(5-(oxazol-2-yl)pyridin-3-yl)phenyl (4-methylcyclohexyl)carbamate] the same measures were greater than 1000 nM and greater than 10 µM.
As to `CCCCCCCCNC(=O)Oc1ccc(OC)c(-c2cncc(-c3nnn[nH]3)c2)c1` [Example 250, 3-(5-(1H-tetrazol-5-yl)pyridin-3-yl)-4-methoxyphenyl octylcarbamate], the IC50 at human recombinant FAAH was 100 to 1000 nM; at human recombinant MAGL, roughly 10 µM.
Regarding `CC1CCC(NC(=O)Oc2ccc(F)c(-c3cncc(-c4nnco4)c3)c2)CC1` (stereo not drawn) [Example 193, 3-(5-(1,3,4-oxadiazol-2-yl)pyridin-3-yl)-4-fluorophenyl (4-methylcyclohexyl)carbamate], the IC50 is 10 to 100 nM on human recombinant FAAH and greater than 10 µM on human recombinant MAGL.
`COc1ccc(OC(=O)NCC2CCCCC2)cc1-c1cncc(-c2nccs2)c1` [Example 122, 4-methoxy-3-(5-(thiazol-2-yl)pyridin-3-yl)phenyl (cyclohexylmethyl)carbamate]: the values for the IC50 on human recombinant FAAH and at human recombinant MAGL were 100 to 1000 nM and roughly 10 µM, respectively.
For `Cc1cc(OC(=O)NC2CCCCC2)cc(-c2cncc(-c3ncco3)c2)c1` [Example 101, 3-methyl-5-(5-(oxazol-2-yl)pyridin-3-yl)phenyl cyclohexylcarbamate] the same measures were greater than 1000 nM and greater than 10 µM.
For `O=C(NC1CCCCCC1)Oc1cccc(-c2cncc(C(F)(F)F)c2)c1` [Example 34, 3-(5-(trifluoromethyl)pyridin-3-yl)phenyl cycloheptylcarbamate] the same measures were 100 to 1000 nM and greater than 10 µM.
Taken in the same sequence, the figures for `O=C(NC1CCCCCC1)Oc1cccc(-c2cncc(-c3nnco3)n2)c1` [Example 268, 3-(6-(1,3,4-oxadiazol-2-yl)pyrazin-2-yl)phenyl cycloheptylcarbamate] were 10 to 100 nM and 1 to 10 µM.
Regarding `COc1ccc(OC(=O)NC2CCCCC2)cc1-c1cncc(-c2ccno2)c1` [Example 113, 3-(5-(isoxazol-5-yl)pyridin-3-yl)-4-methoxyphenyl cyclohexylcarbamate], the IC50 was roughly 100 nM on human recombinant FAAH and greater than 10 µM on human recombinant MAGL.
Taken in the same sequence, the figures for `O=C(NC1CCCCCC1)Oc1cccc(-c2cncc(-c3ncno3)c2)c1` [Example 206, 3-(5-(1,2,4-oxadiazol-5-yl)pyridin-3-yl)phenyl cycloheptylcarbamate] were 10 to 100 nM and greater than 10 µM.
For `CCCCCCCNC(=O)Oc1cccc(-c2cncc(-c3ncco3)c2)c1` [Example 72, 3-(5-(oxazol-2-yl)pyridin-3-yl)phenyl heptylcarbamate] the same measures were 1 to 10 nM and greater than 1 µM.
As for `COc1ccc(OC(=O)NCC2CCCCC2)cc1-c1cncc(-c2ccno2)c1` [Example 110, 3-(5-(isoxazol-5-yl)pyridin-3-yl)-4-methoxyphenyl (cyclohexylmethyl)carbamate], the IC50 at human recombinant FAAH is 10 to 100 nM; at human recombinant MAGL it was roughly 10 µM.
Taken in the same sequence, the figures for `O=C(Nc1cccc2ccccc12)Oc1cccc(-c2cncc(-c3nnco3)c2)c1` [Example 140, 3-(5-(1,3,4-oxadiazol-2-yl)pyridin-3-yl)phenyl naphthalen-1-ylcarbamate] were greater than 100 nM and greater than 50 µM.
For `COc1ccc(OC(=O)NC2CCCCCC2)cc1-c1cncc(-c2nncs2)c1` [Example 218, 3-(5-(1,3,4-thiadiazol-2-yl)pyridin-3-yl)-4-methoxyphenyl cycloheptylcarbamate] the same measures were 10 to 100 nM and greater than 10 µM.
Taken in the same sequence, the figures for `O=C(NCc1ccccc1)Oc1cccc(-c2cncc(-c3nnco3)n2)c1` [Example 265, 3-(6-(1,3,4-oxadiazol-2-yl)pyrazin-2-yl)phenyl benzylcarbamate] were 100 to 1000 nM and greater than 10 µM.
For the compound `CCCCCCCCNC(=O)Oc1cc(OC)cc(-c2cncc(-c3nnco3)c2)c1` [Example 174, 3-(5-(1,3,4-oxadiazol-2-yl)pyridin-3-yl)-5-methoxyphenyl octylcarbamate], the IC50 at human recombinant FAAH is 1 to 10 nM; at human recombinant MAGL, roughly 10 µM.
`COc1cc(OC(=O)NCc2ccccc2)cc(-c2cncc(-c3nnco3)c2)c1` [Example 176, 3-(5-(1,3,4-oxadiazol-2-yl)pyridin-3-yl)-5-methoxyphenyl benzylcarbamate]: the IC50 on human recombinant FAAH was greater than 1000 nM; at human recombinant MAGL, greater than 10 µM.
Taken in the same sequence, the figures for `CCCCCCCCNC(=O)Oc1ccc(O)c(-c2cncc(-c3ncn[nH]3)c2)c1` [Example 226, 3-(5-(1H-1,2,4-triazol-5-yl)pyridin-3-yl)-4-hydroxyphenyl octyl carbamate] were 1 to 10 nM and greater than 10 µM.
`O=C(NC1CCCCCC1)Oc1cccc(-c2cncc(-c3ccc[nH]3)c2)c1` [Example 40, 3-(5-(1H-pyrrol-2-yl)pyridin-3-yl)phenyl cycloheptylcarbamate]: the IC50 at human recombinant FAAH was 10 to 100 nM; on human recombinant MAGL it was roughly 10 µM.
On to `CCCCCCCCNC(=O)Oc1cccc(-c2cncc(-c3nnco3)n2)c1` [Example 263, 3-(6-(1,3,4-oxadiazol-2-yl)pyrazin-2-yl)phenyl octylcarbamate], for which the IC50 on human recombinant FAAH lay within 1 to 10 nM; on human recombinant MAGL, 1 to 10 µM.
On to `CCOC(=O)c1cncc(-c2cccc(OC(=O)NC3CCCCC3)c2)c1` [Example 6, ethyl 5-(3-((cyclohexylcarbamoyl)oxy)phenyl)nicotinate], for which the IC50 at human recombinant FAAH is greater than 100 nM; at human recombinant MAGL it was greater than 0.1 µM.
For `O=C(NCCCc1ccccc1)Oc1cccc(-c2cncc(-c3nnco3)c2)c1` [Example 136, 3-(5-(1,3,4-oxadiazol-2-yl)pyridine-3-yl)phenyl (3-phenylpropyl)carbamate] the same measures were 10 to 100 nM and 10 to 50 µM.
For `O=C(NC1CCCCCC1)Oc1cccc(-c2cncc(-c3nccs3)c2)c1` [Example 120, 3-(5-(thiazol-2-yl)pyridin-3-yl)phenyl cycloheptylcarbamate] the same measures were 10 to 100 nM and roughly 10 µM.
Taken in the same sequence, the figures for `CCOC(=O)c1cncc(-c2cccc(OC(=O)NC3CCCC3)c2)c1` [Example 5, ethyl 5-(3-((cyclopentylcarbamoyl)oxy)phenyl)nicotinate] were 10 to 100 nM and greater than 10 µM.
On to `O=C(NCc1ccc2ccccc2c1)Oc1cccc(-c2cncc(-c3ncn[nH]3)c2)c1` [Example 222, 3-(5-(1H-1,2,4-triazol-5-yl)pyridin-3-yl)phenyl (naphthalen-2-ylmethyl)carbamate], for which the figures for the IC50 on human recombinant FAAH and on human recombinant MAGL were 10 to 100 nM and roughly 10 µM, respectively.
For the compound `O=C(NC1CCCC1)Oc1cccc(-c2cncc(-c3nnco3)n2)c1` [Example 266, 3-(6-(1,3,4-oxadiazol-2-yl)pyrazin-2-yl)phenyl cyclopentylcarbamate], the IC50 lay within 10 to 100 nM at human recombinant FAAH and 1 to 10 µM at human recombinant MAGL.

A word on the IC50: it is the concentration that gives 50% inhibition.
